The values that follow come from US9896445B2, “Heterocyclic inhibitors of ERK1 and ERK2 and their use in the treatment of cancer” (Asana Biosciences, LLC, priority 2015, dated 2018).

A word on the IC50: it is the concentration needed to halve the response being measured.

Assay [1] addresses T1, ERK1 (Homo sapiens, UniProt P27361).
T1 construct: purchased Jubilant Biosys
Put plainly: ERK1 HTRF (biochemical) assay. The protocol:
ERK1 and ERK2 HTRF (Biochemical) Assays
These assays employed a homogeneous time resolved fluorescence (HTRF) technique. […] The plate was incubated at room temperature for 60 min with shaking. […] The IC50 values (half maximal inhibitory concentration values) were subsequently determined using a sigmoidal dose-response curve (variable slope) in GraphPad Prism® 5 software.
On the technique in general: In TR-FRET formats the signal depends on donor and acceptor labels being close together.

Assay [2] addresses T2, ERK2 (Homo sapiens, UniProt P28482).
T2 construct: purchased Jubilant Biosys
Briefly: ERK2 HTRF (biochemical) assay. A digest of the protocol:
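Readout was time-resolved FRET between europium anti-phospho-MBP and streptavidin-APC after a 60-min room-temperature kinase step. That step used ERK2 (25 nM in enzyme mix), biotinylated MBP peptide (1 uM) and ATP (24 uM) from the substrate mix, in pH 7.5 Tris buffer.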

Molecules are shown by their SMILES. A value given as a limit tells only on which side of the number the result lay.

T1 sequence (P27361 whole entry): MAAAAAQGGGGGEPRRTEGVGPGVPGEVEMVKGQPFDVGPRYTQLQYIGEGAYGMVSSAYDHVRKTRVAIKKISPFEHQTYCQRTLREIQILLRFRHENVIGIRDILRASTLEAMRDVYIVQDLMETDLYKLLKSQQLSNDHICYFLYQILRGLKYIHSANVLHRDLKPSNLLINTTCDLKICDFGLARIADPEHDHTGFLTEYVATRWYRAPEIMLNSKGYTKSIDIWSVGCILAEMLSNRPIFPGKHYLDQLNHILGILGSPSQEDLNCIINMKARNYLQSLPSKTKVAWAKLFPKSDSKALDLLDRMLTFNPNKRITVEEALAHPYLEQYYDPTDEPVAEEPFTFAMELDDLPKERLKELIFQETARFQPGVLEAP
T2 sequence (P28482 whole entry): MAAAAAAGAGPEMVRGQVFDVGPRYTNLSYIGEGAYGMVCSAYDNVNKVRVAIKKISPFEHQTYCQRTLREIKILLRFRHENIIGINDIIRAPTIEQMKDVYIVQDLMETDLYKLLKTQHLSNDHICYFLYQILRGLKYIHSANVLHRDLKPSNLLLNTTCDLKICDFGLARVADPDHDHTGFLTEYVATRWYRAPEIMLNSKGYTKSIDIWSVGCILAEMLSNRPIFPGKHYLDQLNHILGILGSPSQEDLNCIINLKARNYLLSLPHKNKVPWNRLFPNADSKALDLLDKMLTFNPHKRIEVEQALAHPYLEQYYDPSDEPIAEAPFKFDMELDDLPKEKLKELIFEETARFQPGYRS

As to `Cc1cnc(Nc2ccc(F)c(C(=O)N(C)C)c2)nc1-n1ccc(C(=O)NC(CO)c2cccc(Cl)c2)c1` (centres unmarked) [Compound 194, N-(1-(3-chloro-phenyl)-2-hydroxyethyl)-1-(2-((3-(dimethyl-carbamoyl)-4-fluorophenyl)amino)-5-methyl-pyrimidin-4-yl)-1H-pyrrole-3-carboxamide], the results for the half-inhibitory concentration (IC50) in assay [1] (HTRF) and in assay [2] (HTRF) were below 50 nM and at most 50 nM, respectively.

For the compound `COc1cc(Nc2ncc(C)c(-n3ccc(C(=O)N[C@H](CO)c4ccc(F)c(Cl)c4)c3)n2)cc(OC)c1OC` [Compound 126, (S)-N-(1-(3-chloro-4-fluorophenyl)-2-hydroxyethyl)-1-(5-methyl-2-((3,4,5-trimethoxyphenyl)amino)pyrimidin-4-yl)-1H-pyrrole-3-carboxamide], the results for the half-maximal inhibitory concentration (IC50) in assay [1] (HTRF) and in assay [2] (HTRF) were below 50 nM and at most 50 nM, respectively.

For the compound `Cc1cnc(Nc2ccc3c(c2)OC(F)(F)O3)cc1-n1ccc(C(=O)NC(CO)c2ccccc2)c1` (centres unmarked) [Compound 80, 1-(2-((2,2-difluorobenzo[d] [1,3]dioxol-5-yl)-amino)-5-methyl-pyridin-4-yl)-N-(2-hydroxy-1-phenyl-ethyl)-1H-pyrrole-3-carboxamide], the IC50 in assay [1] (HTRF) was below 50 nM; in assay [2] (HTRF), at most 50 nM.

As for `Cc1cnc(NC2CC(F)(F)C2)nc1-n1cnc(C(=O)NCc2cccc(Cl)c2CO)c1` [Example 273, N-(3-chloro-2-(hydroxymethyl)benzyl)-1-(2-((3,3-difluorocyclobutyl)amino)-5-methyl-pyrimidin-4-yl)-1H-imidazole-4-carboxamide], the results for the IC50 in assay [1] (HTRF) and in assay [2] (HTRF) were below 50 nM and at most 50 nM, respectively.

`Cc1cnc(Nc2ccc(N3CCC(N4CCNCC4)CC3)cc2)nc1-n1ccc(C(=O)NC(CO)c2ccccc2)c1` (centres unmarked) [Compound 178, N-(2-hydroxy-1-phenylethyl)-1-(5-methyl-2-((4-(4-(piperazin-1-yl)-piperidin-1-yl)-phenyl)amino)pyrimidin-4-yl)-1H-pyrrole-3-carboxamide]: the IC50 in assay [1] (HTRF) and in assay [2] (HTRF) was 100 to 500 nM each time.

Take `Cc1cnc(Nc2ccc(F)c(N3CCOCC3)c2)nc1-n1cnc(C(=O)NC(CO)c2cccc(Cl)c2)c1` (centres unmarked) [Compound 223, N-(1-(3-chlorophenyl)-2-hydroxyethyl)-1-(2-((4-fluoro-3-morpholinophenyl)amino)-5-methyl-pyrimidin-4-yl)-1H-imidazole-4-carboxamide]: the results for the 50% inhibitory concentration (IC50) in assay [1] (HTRF) and in assay [2] (HTRF) were below 50 nM and at most 50 nM, respectively.

With `CNCCNC[C@@H](NC(=O)c1cn(-c2nc(NC3CCOCC3)ncc2C)cn1)c1cccc(Cl)c1` [Example 345, ((S)-N-(1-(3-chlorophenyl)-2-((2-(methylamino)ethyl)amino)ethyl)-1-(5-methyl-2-((tetrahydro-2H-pyran-4-yl)amino)-pyrimidin-4-yl)-1H-imidazole-4-carboxamide2,2,2-trifluoroacetate], the concentration for half-maximal inhibition (IC50) in assay [1] (HTRF biochemical assay) is below 50 nM; in assay [2] (HTRF biochemical assay), at most 50 nM.

With `NCC(NC(=O)c1ccn(-c2ccnc(Nc3ccc(F)cc3)c2)c1)c1ccccc1` (centres unmarked) [Compound 206, N-(2-amino-1-phenylethyl)-1-(2-((4-fluorophenyl)-amino)pyridin-4-yl)-1H-pyrrole-3-carboxamide], the IC50 in assay [1] (HTRF) was below 50 nM; in assay [2] (HTRF), at most 50 nM.

In the case of `Cc1cnc(Nc2ccc3c(c2)OCO3)nc1-n1ccc(C(=O)NC(CO)c2cccc(Cl)c2)c1` (centres unmarked) [Compound 42, 1-(2-(benzo[d][1,3]dioxol-5-ylamino)-5-methylpyrimidin-4-yl)-N-(1-(3-chloro-phenyl)-2-hydroxy-ethyl)-1H-pyrrole-3-carboxamide], the half-inhibitory concentration (IC50) is below 50 nM in assay [1] (HTRF) and at most 50 nM in assay [2] (HTRF).

For `Cc1cccc(C(CO)NC(=O)c2ccn(-c3nc(N[C@H]4CCOC4)ncc3C)c2)c1` (stereo partly drawn) [Compound 187, N-(2-hydroxy-1-(m-tolyl)ethyl)-1-(5-methyl-2-(((S)-tetrahydrofuran-3-yl)amino)pyrimidin-4-yl)-1H-pyrrole-3-carboxamide], the values for the IC50 in assay [1] (HTRF) and in assay [2] (HTRF) were below 50 nM and at most 50 nM, respectively.

Consider `Cc1cnc(Nc2cccnc2)cc1-n1ccc(C(=O)NC(CO)c2ccccc2)c1` (centres unmarked) [Compound 81, N-(2-hydroxy-1-phenylethyl)-1-(5-methyl-2-(pyridin-3-ylamino)pyridin-4-yl)-1H-pyrrole-3-carboxamide], for which the 50% inhibitory concentration (IC50) in assay [1] (HTRF) was below 50 nM; in assay [2] (HTRF), at most 50 nM.

Regarding `CCC(C)Nc1ncc(C)c(-n2ccc(C(=O)N[C@H](CO)c3ccc(F)c(Cl)c3)c2)n1` (stereo partly drawn) [Compound 197, 1-(2-(sec-butylamino)-5-methylpyrimidin-4-yl)-N-((S)-1-(3-chloro-4-fluoro-phenyl)-2-hydroxy-ethyl)-1H-pyrrole-3-carboxamide], the half-inhibitory concentration (IC50) in assay [1] (HTRF) is below 50 nM; in assay [2] (HTRF), at most 50 nM.

For `Cc1cnc(NC2CCOCC2)nc1-n1cnc(C(=O)NC(CO)c2cccc(C(F)(F)F)c2)c1` (centres unmarked) [Compound 237, N-(2-hydroxy-1-(3-(trifluoromethyl)-phenyl)ethyl)-1-(5-methyl-2-((tetrahydro-2H-pyran-4-yl)amino)-pyrimidin-4-yl)-1H-imidazole-4-carboxamide], the IC50 is below 50 nM in assay [1] (HTRF) and at most 50 nM in assay [2] (HTRF).

Turning to `O=C(NC(CO)c1ccccc1)c1ccn(-c2ccnc(Nc3ccc(F)cc3Cl)c2)c1` (centres unmarked) [Compound 82, 1-(2-((2-chloro-4-fluorophenyl)amino)pyridin-4-yl)-N-(2-hydroxy-1-phenylethyl)-1H-pyrrole-3-carboxamide], the IC50 is 50 to 100 nM in assay [1] (HTRF) and at most 50 nM in assay [2] (HTRF).

For the compound `Cc1cnc(NC2CC2)nc1-n1cc(NC(=O)N[C@H](CO)c2cccc(Cl)c2)cn1` [Compound 3, (S)-1-(1-(3-chlorophenyl)-2-hydroxyethyl)-3-(1-(2-(cyclopropyl-amino)-5-methyl-pyrimidin-4-yl)-1H-pyrazol-4-yl)urea], the 50% inhibitory concentration (IC50) in assay [1] (HTRF) and in assay [2] (HTRF) was 50 to 100 nM each time.

Turning to `CC[C@@H](CO)Nc1cc(-n2ccc(C(=O)NC(CO)c3cccc(Cl)c3)c2)ccn1` (stereo partly drawn) [Compound 109, N-(1-(3-chloro-phenyl)-2-hydroxy-ethyl)-1-(2-(((S)-1-hydroxybutan-2-yl)amino)pyridin-4-yl)-1H-pyrrole-3-carboxamide], the concentration for half-maximal inhibition (IC50) in assay [1] (HTRF) is below 50 nM; in assay [2] (HTRF) it was at most 50 nM.

`Cc1cnc(NC(C)c2ccccc2)nc1-n1ccc(C(=O)NC(CO)c2ccccc2)c1` (centres unmarked) [Compound 117, N-(2-hydroxy-1-phenylethyl)-1-(5-methyl-2-((1-phenylethyl)amino)pyrimidin-4-yl)-1H-pyrrole-3-carboxamide]: the figures for the IC50 in assay [1] (HTRF) and in assay [2] (HTRF) were 100 to 500 nM and 50 to 100 nM, respectively.

Regarding `Cc1cnc(Nc2ccc(F)cc2Cl)cc1-n1ccc(C(=O)NC(CO)c2cccc(Cl)c2)c1` (centres unmarked) [Compound 91, 1-(2-((2-chloro-4-fluorophenyl)amino)-5-methylpyridin-4-yl)-N-(1-(3-chlorophenyl)-2-hydroxyethyl)-1H-pyrrole-3-carboxamide], the values for the IC50 in assay [1] (HTRF) and in assay [2] (HTRF) were below 50 nM and at most 50 nM, respectively.

`O=C(Nc1cnn(-c2ccnc(Nc3ccccc3Cl)n2)c1)N[C@@H](CO)c1ccccc1` [Compound 4, (R)-1-(1-(2-((2-chlorophenyl)amino)pyrimidin-4-yl)-1H-pyrazol-4-yl)-3-(2-hydroxy-1-phenylethyl)urea]: the IC50 in assay [1] (HTRF) and in assay [2] (HTRF) was above 2500 nM throughout.
